In ChEMBL document CHEMBL3817797, “Crystal Structure of Human E-Cadherin-EC1EC2 in Complex with a Peptidomimetic Competitive Inhibitor of Cadherin Homophilic Interaction” (J Med Chem, 2016) one finds Activity and inhibition data, which are given here for two molecules.

The term inhibition denotes how much of the control response was suppressed.

For experiment [1], the target named is T1, Cadherin-1 (Homo sapiens) (UniProt P12830).
T1 sequence (whole entry): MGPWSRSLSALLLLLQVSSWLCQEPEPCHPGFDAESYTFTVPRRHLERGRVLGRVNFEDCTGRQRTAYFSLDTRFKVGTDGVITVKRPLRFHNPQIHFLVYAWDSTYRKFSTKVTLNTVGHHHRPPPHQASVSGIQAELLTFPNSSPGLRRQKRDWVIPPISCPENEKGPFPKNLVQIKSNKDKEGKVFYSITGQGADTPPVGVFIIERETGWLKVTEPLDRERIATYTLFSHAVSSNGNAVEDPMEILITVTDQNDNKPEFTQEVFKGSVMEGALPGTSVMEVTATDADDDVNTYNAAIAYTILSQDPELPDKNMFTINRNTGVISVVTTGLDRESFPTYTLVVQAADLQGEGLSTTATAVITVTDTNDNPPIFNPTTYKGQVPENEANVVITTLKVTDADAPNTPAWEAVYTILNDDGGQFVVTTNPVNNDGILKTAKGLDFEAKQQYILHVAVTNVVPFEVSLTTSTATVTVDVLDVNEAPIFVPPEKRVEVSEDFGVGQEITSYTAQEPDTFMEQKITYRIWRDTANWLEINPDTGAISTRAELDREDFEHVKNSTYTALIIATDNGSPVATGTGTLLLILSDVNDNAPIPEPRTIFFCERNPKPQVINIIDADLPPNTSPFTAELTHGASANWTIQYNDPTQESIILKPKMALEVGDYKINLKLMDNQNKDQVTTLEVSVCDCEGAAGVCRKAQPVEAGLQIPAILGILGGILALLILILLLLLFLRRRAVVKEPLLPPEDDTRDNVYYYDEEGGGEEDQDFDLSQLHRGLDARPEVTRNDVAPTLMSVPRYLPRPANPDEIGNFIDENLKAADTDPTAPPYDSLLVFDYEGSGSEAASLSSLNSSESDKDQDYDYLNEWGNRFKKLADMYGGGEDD
The experiment can be described thus: Binding affinity to E-cadherin in human OAW42 cells assessed as effect on PI3K/Akt signalling activation by measuring phosphorylation of Akt at Ser-473 residue at 1 to 2 mM by immunoblot analysis. The following applies: OAW-42. Type of experiment: cell-based.

For experiment [2], the target named is T1, Cadherin-1 (Homo sapiens). The experiment is described as follows: Inhibition of E-cadherin-Fc chimeric protein binding to E-cadherin in human OAW42 cells at 2 mM preincubated for 1 hr followed by E-cadherin-Fc addition measured after 2 hrs by ELISA relative to control. In kind it is cell-based. The following applies: OAW-42. Background: In an ELISA, binding on a coated surface is turned into a signal by an enzyme label.

The target in experiment [3] is T2, Cadherin-2 (Homo sapiens) (UniProt P19022).
T2 sequence (whole entry): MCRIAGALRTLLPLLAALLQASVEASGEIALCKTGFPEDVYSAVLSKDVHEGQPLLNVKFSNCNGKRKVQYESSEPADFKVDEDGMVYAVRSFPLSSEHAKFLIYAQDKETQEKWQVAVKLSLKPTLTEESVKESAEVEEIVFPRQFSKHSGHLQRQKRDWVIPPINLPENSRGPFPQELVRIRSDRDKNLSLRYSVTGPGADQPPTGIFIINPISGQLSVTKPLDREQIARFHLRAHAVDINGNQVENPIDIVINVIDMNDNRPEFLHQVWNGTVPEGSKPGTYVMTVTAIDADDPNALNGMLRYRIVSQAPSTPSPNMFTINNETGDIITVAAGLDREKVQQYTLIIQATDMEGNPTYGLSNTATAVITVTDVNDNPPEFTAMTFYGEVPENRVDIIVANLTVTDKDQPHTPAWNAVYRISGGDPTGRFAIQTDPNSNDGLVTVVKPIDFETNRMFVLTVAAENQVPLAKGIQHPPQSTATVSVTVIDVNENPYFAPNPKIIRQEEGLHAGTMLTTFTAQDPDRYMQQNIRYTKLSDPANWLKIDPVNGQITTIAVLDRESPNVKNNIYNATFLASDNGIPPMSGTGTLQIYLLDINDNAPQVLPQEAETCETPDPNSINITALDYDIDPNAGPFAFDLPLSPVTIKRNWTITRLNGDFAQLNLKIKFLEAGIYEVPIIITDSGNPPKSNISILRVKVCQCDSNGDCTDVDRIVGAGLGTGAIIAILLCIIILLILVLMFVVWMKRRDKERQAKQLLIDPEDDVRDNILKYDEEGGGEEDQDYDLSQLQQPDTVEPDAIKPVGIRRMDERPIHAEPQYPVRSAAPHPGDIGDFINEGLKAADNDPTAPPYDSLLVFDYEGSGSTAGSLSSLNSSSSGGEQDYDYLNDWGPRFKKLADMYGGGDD
The experiment can be described thus: Inhibition of recombinant N-cadherin-Fc chimeric protein (unknown origin) homodimerization at 10 uM preincubated for 30 mins followed by N-cadherin-Fc addition by surface plasmon resonance analysis relative to control. On the technique in general: SPR reads the build-up and loss of mass on a sensor chip optically.

The target of experiment [4] is T2, Cadherin-2 (Homo sapiens). The experiment can be described thus: Inhibition of N-cadherin-Fc chimeric protein binding to N-cadherin in human SKOV3 cells at 2 mM preincubated for 1 hr followed by N-cadherin-Fc addition measured after 2 hrs by ELISA relative to control. Type of experiment: cell-based. The following applies: SK-OV-3.
Experiment [5] concerns the target T2, Cadherin-2 (Homo sapiens). The experiment can be described thus: Inhibition of N-cadherin-Fc chimeric protein binding to N-cadherin in human SKOV3 cells at 1 mM preincubated for 1 hr followed by N-cadherin-Fc addition measured after 2 hrs by ELISA relative to control. The following applies: SK-OV-3. Type of experiment: cell-based.

The source made the active and inactive calls. The rule behind the calls is not given here.

`CC[C@H](C)[C@H](NC(=O)C[C@@H]1NC(=O)[C@H](CNC(=O)[C@@H](N)CC(=O)O)N(Cc2ccccc2)C1=O)C(=O)NC(C)(C)C`: the result in experiment [1] was Active. Besides, the inhibition in experiment [2] was found to be 50%; in experiment [3] it was 55%; in experiment [4], 84%; in experiment [5], 65%.

For `CC(=O)N[C@H]1CSSC[C@@H](C(N)=O)NC(=O)[C@H](C(C)C)NC(=O)[C@H](C)NC(=O)[C@H](Cc2c[nH]cn2)NC1=O`, the values for the inhibition in experiment [2], in experiment [3] and in experiment [4] were 30%, 28% and 50%, respectively. In experiment [5], the inhibition entry is “inactive”.
